Assay: Pharmacokinetic and distribution experiment (radioactivity in blood and excised organs after tail vein injection)
Format: in vivo
Settings: ddy mice; for Adrenal gland/Blood ratio / Radioactivity Distribution, Blood / Radioactivity Distribution, Femur / Radioactivity Distribution, Heart / Radioactivity Distribution, Large intestine / Radioactivity Distribution, Lung / Radioactivity Distribution, Small intestine / Radioactivity Distribution, Spleen / Radioactivity Distribution, Stomach / Adrenal gland/Kidney ratio / Radioactivity Distribution, Adrenal gland / Radioactivity Distribution, Kidney / Radioactivity Distribution, Liver / Radioactivity Distribution, Pancreas / Adrenal gland/Liver ratio: tail vein injection; for Adrenal gland/Blood ratio / Radioactivity Distribution, Blood / Radioactivity Distribution, Femur / Radioactivity Distribution, Heart / Radioactivity Distribution, Large intestine / Radioactivity Distribution, Lung / Radioactivity Distribution, Small intestine / Radioactivity Distribution, Spleen / Radioactivity Distribution, Stomach: 14.8 kBq (4 μCi); for Adrenal gland/Kidney ratio / Radioactivity Distribution, Adrenal gland / Radioactivity Distribution, Kidney / Radioactivity Distribution, Liver / Radioactivity Distribution, Pancreas: 14.8 kBq
Method: (§1) The HPLC fraction of [^125I]PAY15 obtained in Example 3 was concentrated and then diluted with saline. The resulting solution was used in administration. 100 μL of the solution (18.5 kBq (0.5 μCi)) was injected to the tail vein of each of five ddy mice (6 weeks old). Five minutes later, each mouse was decapitated, and blood was collected. Then, organs (adrenal gland, pancreas, heart, lung, stomach, small intestine, large intestine, liver, spleen, kidney, and thyroid gland) were excised. After measurement of their weights, the radioactivities of blood and each excised organ were measured. Also, the point in time when each mouse was decapitated was changed to 5, 15, 30, 60, and 120 minutes later to perform similar operation.
The HPLC fraction of [^125I]PAY21 obtained in Example 6 was concentrated and then diluted with saline. The resulting solution was used in administration to perform the same operation as in Evaluation 1.
as §1, with “[^18F]PAY27 obtained” for “The HPLC fraction of [^125I]PAY15 obtained”, “Example 10” for “Example 3”, “was” for “was concentrated and then”, “solution (14.8” for “solution (18.5”, “kBq (4” for “kBq (0.5”, “and thigh bone)” for “and thyroid gland)”
as §1, with “[^18F]PAY54 obtained” for “The HPLC fraction of [^125I]PAY15 obtained”, “Example 13” for “Example 3”, “was” for “was concentrated and then”, “solution (14.8” for “solution (18.5”, “kBq (4” for “kBq (0.5”, “and thigh bone)” for “and thyroid gland)”

O=C1CCc2cc(-c3cncc(OCC[18F])c3)cc3c2N1CC3 [[^18F]PAY54, 8-(5-(2-[^18F]fluoroethyloxy)pyridin-3-yl)-1,2,5,6-tetrahydro-4H-pyrrolo[3,2,1-ij]quinolin-4-one]
radioactivity accumulation in the adrenal gland compared with blood and the kidney (5 minutes after administration): high radioactivity accumulation | Adrenal gland/Blood ratio (5 min): 1.55 ± 0.43 | Radioactivity Distribution, Blood (5 min): 4.5 ± 0.2 % dose/g | Radioactivity Distribution, Femur (5 min): 1.9 ± 0.2 % dose/g | Radioactivity Distribution, Heart (5 min): 4.5 ± 0.5 % dose/g | Radioactivity Distribution, Large intestine (5 min): 3.5 ± 0.3 % dose/g | Radioactivity Distribution, Lung (5 min): 4.6 ± 0.2 % dose/g | Radioactivity Distribution, Small intestine (5 min): 5.6 ± 0.3 % dose/g | Radioactivity Distribution, Spleen (5 min): 3.6 ± 0.2 % dose/g | Radioactivity Distribution, Stomach (5 min): 4.6 ± 1.5 % dose/g | Adrenal gland/Blood ratio (15 min): 0.86 ± 0.15 | Radioactivity Distribution, Blood (15 min): 4.5 ± 0.2 % dose/g | Radioactivity Distribution, Femur (15 min): 2.3 ± 0.1 % dose/g | Radioactivity Distribution, Heart (15 min): 3.8 ± 0.2 % dose/g | Radioactivity Distribution, Large intestine (15 min): 6.2 ± 0.5 % dose/g | Radioactivity Distribution, Lung (15 min): 3.7 ± 0.2 % dose/g | Radioactivity Distribution, Small intestine (15 min): 5.3 ± 0.6 % dose/g | Radioactivity Distribution, Spleen (15 min): 3.1 ± 0.2 % dose/g | Radioactivity Distribution, Stomach (15 min): 4.9 ± 0.4 % dose/g | Adrenal gland/Blood ratio (30 min): 0.82 ± 0.13 | Radioactivity Distribution, Blood (30 min): 4.3 ± 0.4 % dose/g | Radioactivity Distribution, Femur (30 min): 2.7 ± 0.3 % dose/g | Radioactivity Distribution, Heart (30 min): 3.7 ± 0.5 % dose/g | Radioactivity Distribution, Large intestine (30 min): 8.5 ± 0.5 % dose/g | Radioactivity Distribution, Lung (30 min): 3.4 ± 0.2 % dose/g | Radioactivity Distribution, Small intestine (30 min): 5.0 ± 0.9 % dose/g | Radioactivity Distribution, Spleen (30 min): 3.1 ± 0.1 % dose/g | Radioactivity Distribution, Stomach (30 min): 3.5 ± 0.2 % dose/g | Adrenal gland/Blood ratio (60 min): 1.16 ± 0.15 | Radioactivity Distribution, Blood (60 min): 3.5 ± 0.5 % dose/g | Radioactivity Distribution, Femur (60 min): 3.4 ± 0.7 % dose/g | Radioactivity Distribution, Heart (60 min): 2.9 ± 0.5 % dose/g | Radioactivity Distribution, Large intestine (60 min): 7.7 ± 1.2 % dose/g | Radioactivity Distribution, Lung (60 min): 2.9 ± 0.4 % dose/g | Radioactivity Distribution, Small intestine (60 min): 3.7 ± 0.7 % dose/g | Radioactivity Distribution, Spleen (60 min): 2.3 ± 0.6 % dose/g | Radioactivity Distribution, Stomach (60 min): 4.3 ± 0.3 % dose/g | Adrenal gland/Blood ratio (120 min): 0.61 ± 0.63 | Radioactivity Distribution, Blood (120 min): 2.8 ± 0.2 % dose/g | Radioactivity Distribution, Femur (120 min): 4.5 ± 0.1 % dose/g | Radioactivity Distribution, Heart (120 min): 2.4 ± 0.4 % dose/g | Radioactivity Distribution, Large intestine (120 min): 7.9 ± 0.7 % dose/g | Radioactivity Distribution, Lung (120 min): 2.2 ± 0.2 % dose/g | Radioactivity Distribution, Small intestine (120 min): 2.4 ± 0.1 % dose/g | Radioactivity Distribution, Spleen (120 min): 2.0 ± 0.2 % dose/g | Radioactivity Distribution, Stomach (120 min): 3.5 ± 0.6 % dose/g | Adrenal gland/Kidney ratio (5 min): 1.60 ± 0.50 | Radioactivity Distribution, Adrenal gland (5 min): 7.0 ± 2.1 % dose/g | Radioactivity Distribution, Kidney (5 min): 4.4 ± 0.5 % dose/g | Radioactivity Distribution, Liver (5 min): 7.5 ± 0.5 % dose/g | Radioactivity Distribution, Pancreas (5 min): 3.4 ± 0.3 % dose/g | Adrenal gland/Kidney ratio (15 min): 1.11 ± 0.15 | Radioactivity Distribution, Adrenal gland (15 min): 3.9 ± 0.8 % dose/g | Radioactivity Distribution, Kidney (15 min): 3.5 ± 0.6 % dose/g | Radioactivity Distribution, Liver (15 min): 6.0 ± 0.4 % dose/g | Radioactivity Distribution, Pancreas (15 min): 2.7 ± 0.2 % dose/g | Adrenal gland/Kidney ratio (30 min): 0.98 ± 0.15 | Radioactivity Distribution, Adrenal gland (30 min): 3.5 ± 0.4 % dose/g | Radioactivity Distribution, Kidney (30 min): 3.6 ± 0.4 % dose/g | Radioactivity Distribution, Liver (30 min): 5.7 ± 0.6 % dose/g | Radioactivity Distribution, Pancreas (30 min): 2.6 ± 0.2 % dose/g | Adrenal gland/Kidney ratio (60 min): 1.40 ± 0.34 | Radioactivity Distribution, Adrenal gland (60 min): 4.1 ± 1.0 % dose/g | Radioactivity Distribution, Kidney (60 min): 3.0 ± 0.3 % dose/g | Radioactivity Distribution, Liver (60 min): 5.0 ± 0.3 % dose/g | Radioactivity Distribution, Pancreas (60 min): 2.4 ± 0.4 % dose/g | Adrenal gland/Kidney ratio (120 min): 0.58 ± 0.54 | Radioactivity Distribution, Adrenal gland (120 min): 2.0 ± 1.5 % dose/g | Radioactivity Distribution, Kidney (120 min): 2.8 ± 0.4 % dose/g | Radioactivity Distribution, Liver (120 min): 4.7 ± 0.6 % dose/g | Radioactivity Distribution, Pancreas (120 min): 1.7 ± 0.2 % dose/g | Adrenal gland/Liver ratio (5 min): 0.95 ± 0.34 | Adrenal gland/Liver ratio (15 min): 0.64 ± 0.13 | Adrenal gland/Liver ratio (30 min): 0.61 ± 0.12 | Adrenal gland/Liver ratio (60 min): 0.82 ± 0.19 | Adrenal gland/Liver ratio (120 min): 0.38 ± 0.41

From US20140187784A1, “RADIOACTIVE QUINOLINONE DERIVATIVE AND PHARMACEUTICAL DRUG COMPRISING THE SAME” (Nihon Medi-Physics Co., Ltd., priority 2012, published 2014)
